Source: patent US12569463B2, “Method for treating diabetes” (Olatec Therapeutics, Inc., priority 2020, dated 2026)

Test: Fasting glucose in diabetic subjects of the clinical study of oral dapansutrile capsules in NYHA II-III systolic heart failure
Assay type: in vivo, human
[1] = Day 28, 1000 mg per day oral, N = 4
[2] = Day 28, 2000 mg per day oral, N = 4
[3] = Day 28, all dapansutrile subjects pooled, N = 14

CS(=O)(=O)CCC#N [Dapansutrile, 3-methanesulfonylpropionitrile]
dose response of fasting glucose change (in words) (500 mg, 1000 mg, 2000 mg per day): trend of dose response
mean fast glucose level decrease from the baseline level (2000 mg treatment, Day 14): 43.5 mg/dL
Fasting Glucose Level, Change from Baseline, Mean (Day 14 (last day of treatment), 500 mg daily oral, diabetic patients N = 6): -20.0 mg/dL
Fasting Glucose Level, Change from Baseline, Median (Day 14, 500 mg daily oral, N = 6): -18.5 mg/dL
Fasting Glucose Level, Change from Baseline, Mean (Day 14, 1000 mg per day (500 mg twice a day) oral, diabetic patients N = 4): -16.5 mg/dL
Fasting Glucose Level, Change from Baseline, Median (Day 14, 1000 mg per day oral, N = 4): -16.5 mg/dL
Fasting Glucose Level, Change from Baseline, Mean (Day 14, 2000 mg per day (500 mg 4 times a day) oral, diabetic patients N = 4): -43.5 mg/dL
Fasting Glucose Level, Change from Baseline, Median (Day 14, 2000 mg per day oral, N = 4): -47.5 mg/dL
Fasting Glucose Level, Change from Baseline, Mean (Day 14, all dapansutrile subjects pooled (500-2000 mg), N = 14): -25.7 mg/dL
Fasting Glucose Level, Change from Baseline, Median (Day 14, all dapansutrile subjects pooled, N = 14): -32.5 mg/dL
decrease of glucose level from the baseline level (in words) (Day 14, all dapansutrile-treated subjects, p value of 0.029): statistically significant decrease
Fasting Glucose Level, Change from Baseline, Mean (Day 28 (14 days after last treatment), 500 mg daily oral, N = 6): 25.8 mg/dL
drug effect on fasting glucose (in words) (Day 28, 14 days after the last treatment): the drug effect was gone
Fasting Glucose Level, Change from Baseline, Median (Day 28, 500 mg daily oral, N = 6): -1.5 mg/dL
Fasting Glucose Level, Change from Baseline, Mean [1]: 7.3 mg/dL
Fasting Glucose Level, Change from Baseline, Median [1]: -7.0 mg/dL
Fasting Glucose Level, Change from Baseline, Mean [2]: -18.0 mg/dL
Fasting Glucose Level, Change from Baseline, Median [2]: -21.5 mg/dL
Fasting Glucose Level, Change from Baseline, Mean [3]: 8.0 mg/dL
Fasting Glucose Level, Change from Baseline, Median [3]: -8.0 mg/dL
